Test results published in US9615576B2, “Pesticidal compositions and processes related thereto” (Dow AgroSciences LLC, priority 2011, dated 2017).
Blank lines part the entries; values can stand above or below the compound they belong to.

Experiments:
[1] = tested on: Beet Armyworm (BAW) (Spodoptera exigua); test: Bioassays on Beet Armyworm (BAW), 128-well diet tray assay; type: in vivo; conditions: 168 h, 50 μg/cm^2 test compound on artificial diet, second instar larvae, 25° C., five to seven days, average of eight wells, read-out: BAW Rating (% mortality)
Method in brief: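 Second-instar larvae (1–5 per well) on artificial diet surface-treated with 50 μg/cm^2 compound applied in 90:10 acetone-water and dried; eight wells per compound. Held 5–7 days at 25° C., 14:10 light-dark. Percent mortality scored per well and averaged over eight wells.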

[2] = tested on: Corn Earworm (CEW) (Helicoverpa zea); test: Bioassays on Corn Earworm (CEW), 128-well diet tray assay; type: in vivo; conditions: 168 h, 50 μg/cm^2 test compound on artificial diet, second instar larvae, 25° C., five to seven days, average of eight wells, read-out: CEW Rating (% mortality)
Method in brief: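 Second-instar larvae (one to five per well) placed on artificial diet treated with 50 μg/cm^2 compound in 90:10 acetone-water, dried; eight wells per compound. Held at 25° C, 14:10 light-dark, five to seven days; percent mortality averaged over wells.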

melting point: 110 to 112 °C
Structure (SMILES): NC(=O)c1ccc(/C=C/C(c2cc(Cl)cc(Cl)c2)C(F)(F)F)cc1 (stereo not drawn) [AC2]

Structure (SMILES): O=Cc1cc(/C=C/C(c2cc(Cl)cc(Cl)c2)C(F)(F)F)ccc1-n1cncn1 (stereo not drawn) [DC52, (E)-5-(3-(3,5-dichlorophenyl)-4,4,4-trifluorobut-1-en-1-yl)-2-(1H-1,2,4-triazol-1-yl)benzaldehyde]
mortality at 50 µg/cm2 [1]: 0% | mortality at 50 µg/cm2 [2]: 0%

Structure (SMILES): OCc1cc(/C=C/C(c2cc(Cl)cc(Cl)c2)C(F)(F)F)ccc1-n1cncn1 (stereo not drawn) [DC53]
mortality at 50 µg/cm2 [1]: 0% | mortality at 50 µg/cm2 [2]: 50 to 100%

Structure (SMILES): O=[N+]([O-])c1cc(/C=C/C(c2cc(Cl)cc(Cl)c2)C(F)(F)F)ccc1-n1cncn1 (stereo not drawn) [DC54]
mortality at 50 µg/cm2 [1]: 0% | mortality at 50 µg/cm2 [2]: 0%

Structure (SMILES): Nc1cc(/C=C/C(c2cc(Cl)cc(Cl)c2)C(F)(F)F)ccc1-n1cncn1 (stereo not drawn) [DC55]
mortality at 50 µg/cm2 [1]: 0% | mortality at 50 µg/cm2 [2]: 0%

Structure (SMILES): CC(=O)Nc1cc(/C=C/C(c2cc(Cl)cc(Cl)c2)C(F)(F)F)ccc1-n1cncn1 (stereo not drawn) [DC56]
mortality at 50 µg/cm2 [1]: 0% | mortality at 50 µg/cm2 [2]: 0%

Structure (SMILES): CNc1cc(/C=C/C(c2cc(Cl)cc(Cl)c2)C(F)(F)F)ccc1-n1cncn1 (stereo not drawn) [DC57, (E)-5-(3-(3,5-dichlorophenyl)-4,4,4-trifluorobut-1-en-1-yl)-N-methyl-2-(1H-1,2,4-triazol-1-yl)aniline]
mortality at 50 µg/cm2 [1]: 50 to 100% | mortality at 50 µg/cm2 [2]: 50 to 100%

Structure (SMILES): NC(=O)c1cc(/C=C/C(c2cc(Cl)cc(Cl)c2)C(F)(F)F)ccc1-n1cncn1 (stereo not drawn) [DC58]
mortality at 50 µg/cm2 [1]: 0% | mortality at 50 µg/cm2 [2]: 0%

Structure (SMILES): N/C(=N\O)c1cc(/C=C/C(c2cc(Cl)cc(Cl)c2)C(F)(F)F)ccc1-n1cncn1 (stereo not drawn) [DC59, (Z)-5-((E)-3-(3,5-dichlorophenyl)-4,4,4-trifluorobut-1-en-1-yl)-N′-hydroxy-2-(1H-1,2,4-triazol-1-yl)benzimidamide]
mortality at 50 µg/cm2 [1]: 0% | mortality at 50 µg/cm2 [2]: 0%

Structure (SMILES): CCOC(=O)c1cc(/C=C/C(c2cc(Cl)cc(Cl)c2)C(F)(F)F)ccc1-n1cncn1 (stereo not drawn) [DC60]
mortality at 50 µg/cm2 [1]: 50 to 100% | mortality at 50 µg/cm2 [2]: 50 to 100%

Structure (SMILES): O=C(O)c1cc(/C=C/C(c2cc(Cl)cc(Cl)c2)C(F)(F)F)ccc1-n1cncn1 (stereo not drawn) [DC61, (E)-5-(3-(3,5-dichlorophenyl)-4,4,4-trifluorobut-1-en-1-yl)-2-(1H-1,2,4-triazol-1-yl)benzoic acid]
mortality at 50 µg/cm2 [1]: 0% | mortality at 50 µg/cm2 [2]: 0%

Structure (SMILES): Cc1cc(/C=C/C(c2cc(Cl)cc(Cl)c2)C(F)(F)F)ccc1-n1cncn1 (stereo not drawn) [DC62]
mortality at 50 µg/cm2 [1]: 50 to 100% | mortality at 50 µg/cm2 [2]: 50 to 100%

Structure (SMILES): Cc1cc(/C=C/C(c2cc(Cl)c(Cl)c(Cl)c2)C(F)(F)F)ccc1-n1cncn1 (stereo not drawn) [DC63]
mortality at 50 µg/cm2 [1]: 50 to 100% | mortality at 50 µg/cm2 [2]: 50 to 100%

Structure (SMILES): FC(F)(F)C(/C=C/c1ccc(-n2cncn2)c(-c2ccncc2)c1)c1cc(Cl)cc(Cl)c1 (stereo not drawn) [DC64]
mortality at 50 µg/cm2 [1]: 0% | mortality at 50 µg/cm2 [2]: 0%

Structure (SMILES): Cc1cc(-n2cncn2)ccc1/C=C/C(c1cc(Cl)cc(Cl)c1)C(F)(F)F (stereo not drawn) [DC65]
mortality at 50 µg/cm2 [1]: 0% | mortality at 50 µg/cm2 [2]: 50 to 100%

Structure (SMILES): FC(F)(F)C(/C=C/c1ccc(-n2cncn2)cc1Cl)c1cc(Cl)c(Cl)c(Cl)c1 (stereo not drawn) [DC66]
mortality at 50 µg/cm2 [1]: 50 to 100% | mortality at 50 µg/cm2 [2]: 50 to 100%

Structure (SMILES): FC(F)(F)C(/C=C/c1ccc(-n2cncn2)cc1Cl)c1cc(Cl)cc(Cl)c1 (stereo not drawn) [DC67]
mortality at 50 µg/cm2 [1]: 50 to 100% | mortality at 50 µg/cm2 [2]: 50 to 100%

Structure (SMILES): C/C(=C\C(c1cc(Cl)cc(Cl)c1)C(F)(F)F)c1ccc(-n2cncn2)cc1 (stereo not drawn) [DC68, (E)-1-(4-(4-(3,5-dichlorophenyl)-5,5,5-trifluoropent-2-en-2-yl)phenyl)-1H-1,2,4-triazole]
mortality at 50 µg/cm2 [1]: 50 to 100% | mortality at 50 µg/cm2 [2]: 50 to 100%

Structure (SMILES): OC(/C=C/c1ccc(-n2cncn2)cc1)(c1cc(Cl)cc(Cl)c1)C(F)(F)F (stereo not drawn) [DC69, (E)-4-(4-(1H-1,2,4-triazol-1-yl)phenyl)-2-(3,5-dichlorophenyl)-1,1,1-trifluorobut-3-en-2-ol]
mortality at 50 µg/cm2 [1]: 0% | mortality at 50 µg/cm2 [2]: 0%

Structure (SMILES): COC(/C=C/c1ccc(-n2cncn2)cc1)(c1cc(Cl)cc(Cl)c1)C(F)(F)F (stereo not drawn) [DC70, (E)-1-(4-(3-(3,5-dichlorophenyl)-4,4,4-trifluoro-3-methoxybut-1-en-1-yl)phenyl)-1H-1,2,4-triazole]
mortality at 50 µg/cm2 [1]: 50 to 100% | mortality at 50 µg/cm2 [2]: 50 to 100%
